Test system: patients with uHTN
Assay: Study 124 Part 1: seated SBP in patients with uncontrolled hypertension (Example 9)
Assay type: in vivo, human
Parameters: key to Model-Based Least-Squares Mean Change from Baseline (SBP) / LSMEANS change from baseline (SBP) / Model-Based Least-Square Mean Change from Baseline (SBP): LS mean change from baseline in seated SBP, mmHg
Description: Study 124 is a double-blind, placebo-controlled, dose range finding, multicenter study conducted in patients with uHTN receiving background antihypertensive agent(s) that are either an ACEI or an ARB, an ACEI/ARB plus a thiazide diuretic, or an ACEI/ARB plus a calcium channel blocker. The study consists of two parts: Part 1 consists of an 8-week treatment period in which the patients are to be assigned to one of 4 dose groups in equal ratio testing 0.5 mg, 1 mg, and 2 mg baxdrostat effects compared to a placebo. Patients are to administer double-blind baxdrostat tablets once per day while they continue taking the background antihypertensive medications. After 8 weeks of double-blind treatment, patients were to enter part 2 of the study unless the patient was assigned to the 2 mg group and the SBP remains ≥130 mmHg. In part 2 of the study, all patients are to cease dosing with background antihypertensive medication and take only baxdrostat 2 mg dose as a monotherapy for 4 weeks.
Key inclusion criteria include that patients are on a stable regimen of anti-hypertensive agents for at least 8 weeks; and have a seated BP≥140 mmHg. Key exclusion criteria include a seated SBP≥180 mmHg and estimated glomerular filtration rate (eGFR)<30 mL/min/1.73 m^2.
In this table, CI=confidence interval, DBP=diastolic blood pressure, LS=least squares, SBP=systolic blood pressure, SE=standard error. The LS means, CIs, and p-values are from an MMRM model with change from baseline as the dependent variable with randomized treatment, visit, and treatment-by-visit interaction as fixed categorical effects; along with covariates of the baseline value, race (African American versus non-African American), and the type of background antihypertensive regimen. The restricted maximum likelihood estimation (REML) approach will be used with an unstructured covariance matrix and the Kenward-Roger approximation for degrees of freedom.

[1] = 0.5 mg (N = 11), mITT Population for Compliance for Black Patients
[2] = 0.5 mg (N = 11), mITT, Female Non-Hispanic Female Patients
[3] = 0.5 mg (N = 12), mITT, Non-Hispanic Male Patients
[4] = 0.5 mg (N = 15), mITT, Hispanic Male Patients
[5] = 1 mg (N = 11), mITT, Female Non-Hispanic Female Patients
[6] = 1 mg (N = 13), mITT Population for Compliance for Black Patients
[7] = 1 mg (N = 14), mITT, Female Hispanic/Latino Patients
[8] = 1 mg (N = 14), mITT, Hispanic Male Patients
[9] = 1 mg (N = 22), mITT, Non-Hispanic Male Patients

CCC(=O)N[C@@H]1CCCc2c(-c3ccc4c(c3)CCC(=O)N4C)cncc21 [baxdrostat, (R)—N-(4-(1-methyl-2-oxo-1,2,3,4-tetrahydroquinolin-6-yl)-5,6,7,8-tetrahydroisoquinolin-8-yl) propionamide]
SBP Change from Baseline to Week 8, Mean (0.5 mg): −17.0 mmHg | SBP Change from Baseline to Week 8, Median (0.5 mg): −17.0 mmHg | SBP at Week 8, Median (0.5 mg): 127.0 mmHg | Model-Based Least-Square Mean Change from Baseline (SBP) (0.5 mg (N = 11), Week 2, mITT Population for Compliance for Black Patients): −9.0 | Model-Based Least-Squares Mean Change from Baseline (SBP) (0.5 mg (N = 11), Week 2, mITT, Female Non-Hispanic Female Patients): −12.5 | Model-Based Least-Square Mean Change from Baseline (SBP) (0.5 mg (N = 11), Week 4, mITT Population for Compliance for Black Patients): −11.6 | Model-Based Least-Squares Mean Change from Baseline (SBP) (0.5 mg (N = 11), Week 4, mITT, Female Non-Hispanic Female Patients): −12.2 | Model-Based Least-Square Mean Change from Baseline (SBP) (0.5 mg (N = 11), Week 6, mITT Population for Compliance for Black Patients): −13.0 | Model-Based Least-Squares Mean Change from Baseline (SBP) (0.5 mg (N = 11), Week 6, mITT, Female Non-Hispanic Female Patients): −11.8 | Model-Based Least-Square Mean Change from Baseline (SBP) (0.5 mg (N = 11), Week 8, mITT Population for Compliance for Black Patients): −17.2 | Model-Based Least-Squares Mean Change from Baseline (SBP) (0.5 mg (N = 11), Week 8, mITT, Female Non-Hispanic Female Patients): −16.7 | Comp w/ Placebo at Week 6, Diff (95% CI) [1]: −2.6 (−14.94, 9.64) | Comp w/ Placebo at Week 8, Diff (95% CI) [1]: −3.0 (−13.58, 7.49) | Comp w/ Placebo at Week 6, Diff (95% CI) [2]: −1.5 (−13.92, 10.84) | Comp w/ Placebo at Week 8, Diff (95% CI) [2]: −3.7 (−13.14, 5.67) | Model-Based Least-Squares Mean Change from Baseline (SBP) (0.5 mg (N = 12), Week 2, mITT, Non-Hispanic Male Patients): −19.9 | Model-Based Least-Squares Mean Change from Baseline (SBP) (0.5 mg (N = 12), Week 4, mITT, Non-Hispanic Male Patients): −20.5 | Model-Based Least-Squares Mean Change from Baseline (SBP) (0.5 mg (N = 12), Week 6, mITT, Non-Hispanic Male Patients): −16.3 | Model-Based Least-Squares Mean Change from Baseline (SBP) (0.5 mg (N = 12), Week 8, mITT, Non-Hispanic Male Patients): −17.2 | Comp w/ Placebo at Week 6, Diff (95% CI) [3]: −6.4 (−17.23, 4.48) | Comp w/ Placebo at Week 8, Diff (95% CI) [3]: −2.2 (−12.46, 8.04) | Model-Based Least-Squares Mean Change from Baseline (SBP) (0.5 mg (N = 15), Week 2, mITT, Hispanic Male Patients): −8.3 | Model-Based Least-Squares Mean Change from Baseline (SBP) (0.5 mg (N = 15), Week 4, mITT, Hispanic Male Patients): −12.6 | Model-Based Least-Squares Mean Change from Baseline (SBP) (0.5 mg (N = 15), Week 6, mITT, Hispanic Male Patients): −16.0 | Model-Based Least-Squares Mean Change from Baseline (SBP) (0.5 mg (N = 15), Week 8, mITT, Hispanic Male Patients): −18.6 | Comp w/ Placebo at Week 6, Diff (95% CI) [4]: −4.7 (−12.73, 3.30) | Comp w/ Placebo at Week 8, Diff (95% CI) [4]: 0.1 (−6.20, 6.41) | SBP at Week 8, Mean (0.5 mg QD, mITT): 129.1 mmHg | SBP LS mean change from baseline (SE), MMRM (0.5 mg, Week 8): −17 (1.63) mm Hg | SBP LS mean difference (SE) vs placebo (0.5 mg, Week 8): −0.5 (2.21) mmHg | LS Mean Change from Baseline (SE) in SBP (0.5 mg, Wk 2): −10.3 (1.61) mm Hg | LS Mean Change from Baseline (SE) in SBP (0.5 mg, Wk 4): −14.2 (1.61) mm Hg | LS Mean Change from Baseline (SE) in SBP (0.5 mg, Wk 6): −13.5 (1.88) mm Hg | SBP Change from Baseline to Week 8, Mean (1 mg): −16.6 mmHg | SBP Change from Baseline to Week 8, Median (1 mg): −16.0 mmHg | SBP at Week 8, Median (1 mg): 128.0 mmHg | Model-Based Least-Squares Mean Change from Baseline (SBP) (1 mg (N = 11), Week 2, mITT, Female Non-Hispanic Female Patients): −11.8 | Model-Based Least-Squares Mean Change from Baseline (SBP) (1 mg (N = 11), Week 4, mITT, Female Non-Hispanic Female Patients): −13.5 | Model-Based Least-Squares Mean Change from Baseline (SBP) (1 mg (N = 11), Week 6, mITT, Female Non-Hispanic Female Patients): −20.3 | Model-Based Least-Squares Mean Change from Baseline (SBP) (1 mg (N = 11), Week 8, mITT, Female Non-Hispanic Female Patients): −23.8 | Comp w/ Placebo at Week 6, Diff (95% CI) [5]: −10.0 (−22.06, 2.15) | Comp w/ Placebo at Week 8, Diff (95% CI) [5]: −10.8 (−20.05, −1.63) | Model-Based Least-Square Mean Change from Baseline (SBP) (1 mg (N = 13), Week 2, mITT Population for Compliance for Black Patients): −8.9 | Model-Based Least-Square Mean Change from Baseline (SBP) (1 mg (N = 13), Week 4, mITT Population for Compliance for Black Patients): −11.8 | Model-Based Least-Square Mean Change from Baseline (SBP) (1 mg (N = 13), Week 6, mITT Population for Compliance for Black Patients): −13.5 | Model-Based Least-Square Mean Change from Baseline (SBP) (1 mg (N = 13), Week 8, mITT Population for Compliance for Black Patients): −17.4 | Comp w/ Placebo at Week 6, Diff (95% CI) [6]: −3.1 (−14.59, 8.31) | Comp w/ Placebo at Week 8, Diff (95% CI) [6]: −3.2 (−12.88, 6.52) | Model-Based Least-Squares Mean Change from Baseline (SBP) (1 mg (N = 14), Week 2, mITT, Female Hispanic/Latino Patients): −7.8 | Model-Based Least-Squares Mean Change from Baseline (SBP) (1 mg (N = 14), Week 2, mITT, Hispanic Male Patients): −7.0 | Model-Based Least-Squares Mean Change from Baseline (SBP) (1 mg (N = 14), Week 4, mITT, Female Hispanic/Latino Patients): −10.3 | Model-Based Least-Squares Mean Change from Baseline (SBP) (1 mg (N = 14), Week 4, mITT, Hispanic Male Patients): −6.4 | Model-Based Least-Squares Mean Change from Baseline (SBP) (1 mg (N = 14), Week 6, mITT, Female Hispanic/Latino Patients): −12.6 | Model-Based Least-Squares Mean Change from Baseline (SBP) (1 mg (N = 14), Week 6, mITT, Hispanic Male Patients): −9.2 | Model-Based Least-Squares Mean Change from Baseline (SBP) (1 mg (N = 14), Week 8, mITT, Female Hispanic/Latino Patients): −12.7 | Model-Based Least-Squares Mean Change from Baseline (SBP) (1 mg (N = 14), Week 8, mITT, Hispanic Male Patients): −15.8 | Comp w/ Placebo at Week 6, Diff (95% CI) [7]: −6.2 (−19.55, 7.07) | Comp w/ Placebo at Week 8, Diff (95% CI) [7]: 6.4 (−5.38, 18.10) | Comp w/ Placebo at Week 6, Diff (95% CI) [8]: 2.1 (−6.16, 10.29) | Comp w/ Placebo at Week 8, Diff (95% CI) [8]: 2.9 (−3.41, 9.25) | Model-Based Least-Squares Mean Change from Baseline (SBP) (1 mg (N = 22), Week 2, mITT, Non-Hispanic Male Patients): −6.8 | Model-Based Least-Squares Mean Change from Baseline (SBP) (1 mg (N = 22), Week 4, mITT, Non-Hispanic Male Patients): −10.3 | Model-Based Least-Squares Mean Change from Baseline (SBP) (1 mg (N = 22), Week 6, mITT, Non-Hispanic Male Patients): −14.2 | Model-Based Least-Squares Mean Change from Baseline (SBP) (1 mg (N = 22), Week 8, mITT, Non-Hispanic Male Patients): −14.7 | Comp w/ Placebo at Week 6, Diff (95% CI) [9]: −4.3 (−13.56, 5.00) | Comp w/ Placebo at Week 8, Diff (95% CI) [9]: 0.2 (−8.82, 9.26) | SBP at Week 8, Mean (1 mg QD, mITT): 130.8 mmHg | SBP LS mean change from baseline (SE), MMRM (1 mg, Week 8): −16 (1.62) mm Hg | SBP LS mean difference (SE) vs placebo (1 mg, Week 8): 0.6 (2.20) mmHg | LS Mean Change from Baseline (SE) in SBP (1 mg, Wk 2): −7.7 (1.6) mm Hg | LS Mean Change from Baseline (SE) in SBP (1 mg, Wk 4): −9.7 (1.59) mm Hg
